From PubChem BioAssay (NCI)
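Compound exposure: 48 hours, 5 concentrations, 96-well plates. At the GI50, growth is halved. TGI marks complete inhibition of growth.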

How the values were obtained:
Assay in all cases: DTP human tumour cell line panel, 48 h
KM12 colon = system: KM12 colon
LOX IMVI melanoma = system: LOX IMVI melanoma
MDA-MB-435 = system: MDA-MB-435
NCI-H23 lung = system: NCI-H23 lung
NCI-H460 lung = system: NCI-H460 lung
OVCAR-3 ovarian = system: OVCAR-3 ovarian
OVCAR-4 ovarian = system: OVCAR-4 ovarian
OVCAR-5 ovarian = system: OVCAR-5 ovarian
SK-MEL-28 melanoma = system: SK-MEL-28 melanoma
SN12C renal = system: SN12C renal

Compound	GI50 (KM12 colon) [µM]	TGI (KM12 colon) [µM]	GI50 (LOX IMVI melanoma) [µM]	TGI (LOX IMVI melanoma) [µM]	GI50 (MDA-MB-435) [µM]	TGI (MDA-MB-435) [µM]	GI50 (NCI-H23 lung) [µM]	TGI (NCI-H23 lung) [µM]	GI50 (NCI-H460 lung) [µM]	TGI (NCI-H460 lung) [µM]	GI50 (OVCAR-3 ovarian) [µM]	TGI (OVCAR-3 ovarian) [µM]	GI50 (OVCAR-4 ovarian) [µM]	TGI (OVCAR-4 ovarian) [µM]	GI50 (OVCAR-5 ovarian) [µM]	TGI (OVCAR-5 ovarian) [µM]	GI50 (SK-MEL-28 melanoma) [µM]	TGI (SK-MEL-28 melanoma) [µM]	GI50 (SN12C renal) [µM]	TGI (SN12C renal) [µM]
Cn1cc(C2=C(c3cccc(N)c3)C(=O)NC2=O)c2ccccc21	7.95	> 20	8.76	> 25	18.7	> 25	20.9	> 25	13.6	> 25	5.67	> 25	> 25	> 25	> 25	> 25	> 25	> 25	13.7	> 25
Cc1cc(Cl)cc2c(N=Nc3ccccc3[N+](=O)[O-])c(O)[nH]c12		> 100		> 100		> 100		> 100		> 100		> 100		> 100		> 100		> 100		> 100
CCCCCCc1cc2cc(-c3nc4ccccc4[nH]3)c(=Nc3ccccc3C)oc2cc1O	3.27	11.7	1.87	3.74	2.16	5.05	2.46	5.87	2.12	4.77	1.77	3.28	1.69	3.37	3.64	29	1.88	3.73	1.73	4.1
O=c1c2ccccc2c(Br)c(Br)c2ccccc12	12.5	29.6	2.22	5.77	4.56	21	12.7	38.7	14.5	34.5	3.37	12	9.24	80.9	30.2	> 100	24.9	> 100	15.8	32.8
Cc1nc(-c2ccccc2)c(Cc2ccccc2O)c(=O)[nH]1		> 100		> 100		> 100		> 100		> 100		> 100		> 100		> 100		> 100		> 100
COc1cccc(C2C3=C(COC3=O)N(CCO)c3cc(OC)ccc32)c1 (stereo unspecified)	0.0543		0.227	> 100	0.0232	0.0631	0.172	> 100	0.0906		0.0347	0.166	0.153	> 100	0.442	> 100	0.13	> 100	0.493	> 100
CCC1C(=O)OCc2c1cc1n(c2=O)Cc2cc3ccccc3nc2-1 (stereo unspecified)		> 100		> 51.2		> 100		10.6		64.4		> 100		> 100		> 100		> 100		> 100
COc1cc(-n2cc(-c3ccc(F)cc3)nc2SCc2ccccc2)cc(OC)c1OC	> 100	> 100	> 100	> 100	> 100	> 100	> 100	> 100	77.2	> 100	> 100	> 100	> 100	> 100	> 100	> 100	> 100	> 100	> 100	> 100
COc1cc2cc(C(=O)CCC(=O)O)sc2cc1OC	> 100	> 100	> 100	> 100	> 100	> 100	> 100	> 100	> 100	> 100	> 100	> 100	> 100	> 100	> 100	> 100	> 100	> 100	> 100	> 100
COC(=O)C1=C(C)NC(C)=C(C(=O)OC)C1/C=C(\Cl)c1ccc(Cl)c(Cl)c1	15.4	31.5	11.4	23.5	15.1	32.1	16.8	31	6.48	23.4	12.8	26.3	10.8	26.6	16.8	30.4	13.2	27.7	14	27.5
O=c1ccc(N=Nc2ccc([N+](=O)[O-])cc2)ccc1O	5.54	> 100	3.36	> 100	9.14	> 100	6.37	> 100	3.48	> 100	3.33	25.8	5.17	> 100	30.1	> 100	8.65	> 100	3.61	> 100
Oc1ccc(CN2CCC(N3CCOCC3)CC2)c2cccnc12	46.9	> 100	29.9	> 100	36.2	> 100	35	> 100	46.9	> 100	31.5	> 100	22.9	> 100	86.9	> 100	37.6	> 100	47.5	> 100
CS(=O)(=O)OCC1OC(n2ccc(NC(=O)c3ccccc3)nc2=O)CC1OS(C)(=O)=O (stereo unspecified)		> 100		> 100		> 100		> 100		> 100		> 100		> 100		> 100		> 100		> 100
N#Cc1cccc(OCc2nc(N)nc(N)c2-c2ccc(Cl)c(Cl)c2)c1	2.96	82.4	0.575	> 100	0.486	> 100	2.42	> 100	0.435	> 100	5.53	> 100	> 100	> 100	6.87	> 100	14.5	> 100	2.23	> 100
O=C(Nc1ccc(F)cc1)Nc1ccccc1CNc1nc(Nc2ccc(OCCN3CCCC3)cc2)ncc1Cl	1.81	6.35	0.914	1.69	1.03	2.28	5.63	13.1	1.15	2.7	1.01	2.01	1.11	2.93	1.76	6.88	0.899	1.78	0.984	2.01
Clc1cc2c(cc1Cl)Oc1cc(Cl)c(Cl)cc1O2	> 0.625	> 0.625	> 0.625	> 0.625	> 0.625	> 0.625	> 0.625	> 0.625	> 0.625	> 0.625	> 0.625	> 0.625	> 0.625	> 0.625	> 0.625	> 0.625	> 0.625	> 0.625	> 0.625	> 0.625
Nc1ccccc1-c1ccc([N+](=O)[O-])cc1	1.59	11.4	37.4	> 100	5.01	> 100	26.6	> 100	4.44	> 100	13.4	76.9	40.8	> 100	31.8	> 100	83.5	> 100	11.2	> 100
CC/C(=C(/c1ccc(OCCN(C)C)cc1)c1ccc(OC(=O)CCC(=O)c2c(C)[nH]c(/C=C3\N=C(c4ccc[nH]4)C=C3OC)c2C)cc1)c1ccccc1	1.21	10	0.456	1.69	2.56	10.2	4.02	18.7	3.48	14.1	2.08	10.3	1.49	14.8	5.75	21.6	2.89	12.4	3.09	18.9
CN(Cc1ccc(Cl)cc1)c1ccc(CO)c(Cl)c1	13	27.2	4.48	16.7	13.5	27.9	5.98	23	1.35	11.1	3.74	13.2	2.27	14	0.644	4.67	12.3	25.1	8.55	22.6
Clc1ccc(/C=C/c2cc(N3CCOCC3)c3cc(Cl)c(Cl)cc3n2)cc1	> 51.4	> 100	> 100	> 100	> 100	> 100	> 100	> 100	> 100	> 100	3.81	> 100	> 100	> 100	> 100	> 100	> 100	> 100	1.54	> 100
CC(C)[C@H]1CC[C@H]2[C@@H](CC[C@H]3[C@](C)(CN)CCC[C@]23C)C1	1.79	3.18	1.61	2.98	2.13	4.69	1.79	3.39	1.68	3.31	1.96	3.84	4.36	20.3	1.73	3.44	16.8	30.8	1.75	3.65
CC(=O)CCc1ccc(OC2OC(COC(=O)c3cc(O)c(O)c(O)c3)C(O)C(O)C2OC(=O)/C=C/c2ccccc2)cc1 (stereo unspecified)	21	43.5	17.1	41.4	16.8	37.1	17.5	38.6	21	43.5	23.8	72.4	23.8	89.7	15.6	32.1	19.4	39.9	20.4	44.4
CCOc1ccccc1NC(=O)c1cc2ccccc2cc1O	2.59	7.15	3.28	11.2	2.38	7.08	2.59	9.45	2.94	7.03	3.16	8.98	3.69	19.6	7.06	27.7	4.91	20.2	2.64	9.24
N=C(N)c1ccc(OCCOCCOc2ccc(C(=N)N)cc2)cc1	41.6	> 100	> 100	> 100	84.8	> 100	78	> 100	44.2	> 100	> 100	> 100	> 100	> 100	> 100	> 100	77	> 100	58.8	> 100
COc1cc2c3c(n(CCCN(CCN)CCCn4c5c(c6cc(OC)c(OC)cc6c4=O)C(=O)c4cc6c(cc4-5)OCO6)c(=O)c2cc1OC)-c1cc2c(cc1C3=O)OCO2	4.04	> 37	0.57	6.32	2.22	23.2	0.984	5.24	0.469	13.6	4.34	20.7	13.3	> 83.8	3.78	18.9	> 37.1	> 100	0.141	0.755
O=C1C2C(C(=O)[N]1[Hg][c]1cccs1)C1(Cl)C(Cl)=C(Cl)C2(Cl)C1(Cl)Cl (stereo unspecified)	11.7	24.3	0.708	1.94	1.47	3.05	1.62	3.14	3.04	10.1	0.283	0.904	1.24	2.51	1.85	3.61	1.24	2.7		
